{"source": "patent US20100233199A1", "about": "“MODULATORS OF HYPERSENSITIVITY REACTIONS” (priority 2007, published 2010)", "key": {"OVA-sensitised mice [1]": {"tested_on": "OVA-sensitised mice", "test": "OVA-induced asthma model, inflammatory response (eosinophils, BAL cells, cytokine expression, serum IgE)", "type": "in vivo, C57BL/6 mice", "protocol": "(§1) C57BL/6 mice were sensitised with 10 ug ovalbumin antigen (OVA) in saline intraperitoneally seven times given on alternate days. 40 days after first sensitisation dose, mice were challenged with intranasal OVA (20 ul in each nostril of a solution of 5 mg/ml of OVA in saline). Mice received two additional challenges of intranasal OVA at days 3 and 6 after the first challenge with OVA. Control mice were sensitised with OVA, but challenged intranasally with saline. Groups of mice receiving parenteral MDD1 treatment were intravenously injected with 8 mg/Kg of MDD1 three times, 6 hours prior to each OVA challenge. Nebulised MDD1 or MDDscram (SCR) peptide was given 6 hours prior to each OVA challenge by nebulising 5 mice per cage with 8 ml of 1 mg/ml MDD1 or control peptide.\nBlood smears were prepared and the percentage of eosinophils was calculated by morphological criteria after May-Grünwald Giemsa-staining. Bronchoalveolar lavage (BAL) was recovered by lavaging airways twice with 1 ml HANKS solution via the tracheal cannula while gently massaging the thorax. Lung lower left lobe was collected and homogenised. Cells were filtered through a cell strainer and cell suspensions prepared in staining medium (PBS with 1% FCS). BAL and lung samples were incubated with anti-CD11b, anti-CCR3, anti-CD4 and antiB220 mab markers for flow cytometric analysis using a FACScan equipped with CellQuest software.\nLung upper right lobe was collected and homogenised on ice. Total RNA was prepared using Trizol (GIBCO, Invitrogen). Purity of the RNA was determined by A260/A280. 5 μg RNA for each sample was reverse transcribed into cDNA using Omniscript RT kit (Qiagen). Cytokine specific predesigned TaqMan gene expression assay (Applied Biosystems) were used to measure cytokine relative gene expression following the manufacturer's instructions (Applied Biosystems). Each experimental sample was assayed in three replicates. β-actin specific primers were used as an internal standard. Negative controls with blank cDNA template were run with every assay to assess specificity. The cycling conditions were as follows: one cycle at 95° C. for 10 minutes, followed by 40 cycles of PCR amplification, each consisting of 95° C. for 15 seconds and 60° C. for 45 seconds. Sequence Detection Software (SDS v 1.2.2, Applied Biosystems) was used for analysis of the results. A threshold cycle (Ct) was determined for each sample. PCR assays showing non-specific products at the end point were excluded from further data analysis. Relative quantification using comparative Ct method was used for analysing results. The results were expressed as relative fold change over the values for non-allergic mice.\nOVA-specific IgE detection: 96-well maxisorp plates were coated overnight at 4° C. with anti-mouse IgE. 2% skim milk was used for unspecific binding blockade. Prediluted serum samples were incubated overnight, plates were loaded with OVA-biotin for 1.5 hours and a colometric reaction was developed using ABTS following manufacture's instructions. For OVA-specific IgG, 96-well maxisorp microtiter plates were pretreated with 0.2% glutaraldehyde and were coated with 10 μg/ml of OVA in 10 mM carbonate buffer (pH 9.6) for 3 hours at 37° C. Wells were blocked with 2% BSA in 10 mM carbonate buffer (pH 9.6) overnight at 4° C. in a humidified chamber. Serum samples were incubated at 37° C. for 1 hour. Peroxidase-conjugated […] followed by ABTS was used to develop the colorimetric reaction. Optical density was read in a microplate reader using a 405 nm filter. Levels of IgE and IgG were expressed as OD units."}, "RBL-2H3 cells [2]": {"tested_on": "RBL-2H3 cells", "test": "RBL-2H3 degranulation assay (β-hexosaminidase release)", "type": "cell-based, rat", "details": "for degranulation upon IgE receptor crosslinking: peptide 0.01 mM pre-treatment overnight, IgE coating + DNP/albumin crosslinking, FIG. 7", "protocol": "(§2) Mast cell degranulation was measured using the β-hexosaminidase release method. RBL-2H3 cells were grown in F15 medium supplemented with 10% of fetal calf serum (FCS) and antibiotics. Cells were carefully detached from the culture flask with a cell scraper and plated at a concentration of 5×10^5 cells/well in a 96 well microtiter plate and incubated in the presence of MDD1 or SCR peptide overnight. RBL-2H3 cells were then incubated with 500 ng/ml anti-DNP IgE mb (SIGMA) for 2 hours at 37° C. After washing, cells were stimulated with 100 ng/ml DNP/albumin for 30 minutes. For non IgE specific stimulation 1 nM Ionomycin only was added to the cultures for 30 minutes. Supernatants were then collected and cell lysates were prepared using 0.1% Triton X-100. Lysate and supernatant samples (10 μl) were transferred into 96-well plates and 50 μl mM 1 mM p-nitrophenyl-N-acetyl-β-D-glucopyranoside in 50 mM citrate buffer was added to each well and incubated for 1 hour at 37° C. in the dark. The reaction was stopped by adding 100 μl 0.1M NaHCO3/0.1M Na2CO3 into each well and the absorbance measured at 405 nm. Percentage degranulation was calculated by the following formula: OD supernatant/(OD supernatant+OD lysate)×100.\nas §2, with “MPX741 peptide” for “MDD1”, “MPX742” for “SCR”, “(100)” for “(10 μl)”, “μl” for “μl mM”, “formula:” for “formula: OD supernatant/(OD supernatant+OD lysate)×100.”\nOD supernatant/(OD supernatant+OD lysate)×100."}, "RBL-2H3 cells [3]": {"tested_on": "RBL-2H3 cells", "test": "MDD1 uptake by RBL-2H3 cells (FACS, streptavidin-APC)", "type": "cell-based, rat", "details": "biotinylated MDD1 0.001, 0.01 and 0.1 mM overnight; intracellular FACS staining with streptavidin APC; FIG. 6", "protocol": "RBL-2H3 cells were grown in F15 medium supplemented with 10% of fetal calf serum (FCS) and antibiotics. Cells were carefully detached from the culture flask with a cell scraper and plated at a concentration of 5×10^5 cells/well in a 96 well microtiter plate. Cells were incubated with various concentrations of biotinylated MDD1 (0.1, 0.01 and 0.001 mM) overnight. Biotinylated MDD1 uptake by live cells was detected using streptavidin-APC in single-cell suspensions previously treated with a combined cytofix/cytopenn fixation and penneabilization solution kit following manufacture's instructions (Becton Dickinson, BD). Cells were then analysed using a BD FACscan flow cytometer."}, "OVA-sensitised mice [4]": {"tested_on": "OVA-sensitised mice", "test": "OVA-induced asthma model, lung resistance after β-methacholine", "type": "in vivo, C57BL/6 mice", "details": "6 hours prior to each OVA challenge, compared to control peptide", "protocol": "as §1\nFunctional lung studies and organ collection was performed one day after the final OVA challenge. Lung resistance was measured in anesthetized mice after increasing doses of β-methacholine. […] Lung resistance was measured by plethysmography, using an apparatus and software supplied by Buxco. Lung resistance values are expressed as an average of each group of mice for each methacholine dose. For each mouse, individual values were calculated by averaging collected data (every 5 seconds during 5 minutes) for each methacholine dose."}, "skin mast cells": {"tested_on": "skin mast cells", "type": "in vivo, mice", "details": "for systemic effects of local (ear) treatment: mouse, in vivo", "protocol": "Left ears were treated with DMSO and right ears with 0.2% MDD1 or 0.1% dexamethasone in DMSO twice daily for four days. Mice were then sensitised with anti DNP-20 ul IgE antibody administered to the ears by intradermal injection using an insulin syringe. Local mast cell activation was measured by dye recovery in response to FcεRI crosslink 24 hours post-injection: 100 μg DNP-albumin/1% Evans blue in PBS was injected intravenously and ear biopsies taken after 30 minutes were incubated at 80° C. in 1 ml formamide for 2 hours. The absorbance supernatant was measured at 620 nm."}, "[5]": {"test": "Peptide solubility observation", "type": "physicochemical"}}}
{"compound": "Ac-RALYDNVPECAEELAFRKGD-NH2 [MDD1]", "values": [{"measurement": "overall inflammatory response in the asthmatic reaction", "setting": "OVA-sensitised mice [1]; OVA-sensitized mice, FIG. 9", "result": "reduced"}, {"measurement": "eosinophilia in blood", "setting": "OVA-sensitised mice [1]; allergic mice compared to control treated mice, FIG. 9A", "result": "decreased"}, {"measurement": "cellularity in broncho-alveolar lavages", "setting": "OVA-sensitised mice [1]; allergic mice compared to control treated mice, FIG. 9B", "result": "decreased"}, {"measurement": "cytokine production in inflammatory foci (TNF expression)", "setting": "OVA-sensitised mice [1]; allergic mice compared to control treated mice, FIG. 9C", "result": "decreased"}, {"measurement": "levels of antigen-specific IgE in serum", "setting": "OVA-sensitised mice [1]; allergic mice compared to control treated mice, FIG. 9D", "result": "decreased"}, {"measurement": "comparison with dexamethasone treatment in the inflammatory parameters tested", "setting": "OVA-sensitised mice [1]; dexamethasone 2 mg/kg i.p., some of the parameters, FIG. 9", "result": "outperformed dexamethasone treatment"}, {"measurement": "mast cell activation after non-specific stimulation", "setting": "RBL-2H3 cells [2]; non IgE specific stimulation (ionomycin), data not shown", "result": "inhibit mast cell activation"}, {"measurement": "degranulation upon IgE receptor crosslinking", "setting": "RBL-2H3 cells [2]", "result": "inhibit degranulation"}, {"measurement": "MDD1 peptide uptake by live cells", "setting": "RBL-2H3 cells [3]", "result": "All cells were positive for MDD1 peptide and the levels were observed to increase with peptide concentration"}, {"measurement": "Lung resistance (RL) following increasing doses of β-methacholine", "setting": "OVA-sensitised mice [4]; intravenously 8 mg/kg, FIG. 8A", "result": "reduced"}, {"measurement": "Lung resistance (RL) following increasing doses of β-methacholine", "setting": "OVA-sensitised mice [4]; nebulised intranasal route 1 mg/ml, FIG. 8B", "result": "reduced"}, {"measurement": "mast cell activation following IgE receptor crosslink, by dye extravasation", "setting": "skin mast cells; 0.2% MDD1 peptide/DMSO topically to ear, twice daily for four days, compared to contralateral ears treated with DMSO only, FIG. 10", "result": "reduced levels of activation"}, {"measurement": "systemic effects of local (ear) treatment", "setting": "skin mast cells", "result": "minimal systemic effects"}]}
{"compound": "C[C@@H]1C[C@H]2[C@@H]3CCC4=CC(=O)C=C[C@]4(C)[C@@]3(F)[C@@H](O)C[C@]2(C)[C@@]1(O)C(=O)CO", "note": "[dexamethasone, reference compound]", "values": [{"measurement": "systemic effects of local (ear) treatment", "setting": "skin mast cells", "result": "systemic immunosuppresion"}]}
{"compound": "Ac-PQDQGWNAEITLQMVQY-NH2 [MPX743, PQDQGWNAEITLQMVQY]", "values": [{"measurement": "solubility", "setting": "[5]", "result": "poorly soluble"}]}
{"compound": "EALPGEDCAFRKDANRLVEY (listed as Homo sapiens) [MDD1scram, control peptide, reference compound]", "values": [{"measurement": "degranulation upon IgE receptor crosslinking", "setting": "RBL-2H3 cells [2]", "result": "only a minor inhibitory effect"}]}
{"compound": "LEPPVKLKELHFSNMKTVD (listed as Homo sapiens) [MPX742]", "values": [{"measurement": "degranulation following IgE receptor crosslink", "setting": "RBL-2H3 cells [2]; MPX741, MPX742 0.01 mM pre-treatment, IgE coating + crosslinking, FIG. 11", "result": "significantly reduced degranulation"}]}
